What was measured:
C. parvum = assay: Parasite persistence (time-kill) assay in HCT-8 cells; type: cell-based, Cryptosporidium parvum; conditions: for parasite persistence: highest nontoxic concentrations, added 24 h after infection
Protocol: Excysted C. parvum oocysts were added to >90% confluent HCT-8 cells in 384-well plates. […] At ∼24 h (i.e., the time of compound addition) and at various time intervals thereafter, parasites were washed, fixed, permeabilized, stained, and imaged as for the C. parvum growth assay. For the extended-compound-exposure experiments, the medium and compound were replaced every 3 days. A separate 384-well plate was used for each time interval. Parasite numbers were normalized to host cell nucleus numbers and are expressed as the percentage of parasites per host cell nucleus. In order to fit parasite decay curves, the effect of drugs was isolated from expected changes in parasite numbers over time by expressing the number of parasites as the percentage of the number of parasites with the control, dimethyl sulfoxide (DMSO), for each time point. Exponential decay curves were fit using GraphPad Prism software, version 6.01, and curve validity was assessed using the replicates test.

C. parvum Iowa isolate [1] = assay: IFN-γ knockout mouse model of acute cryptosporidiosis; type: in vivo, C57BL/6 IFN-γ−/− mice; conditions: dose not given
Protocol: All interferon gamma (IFN-γ) knockout mouse studies were performed in compliance with animal care guidelines and were approved by the Explora BioLabs (San Diego, CA) Institutional Animal Care and Use Committee. Four-week-old female C57BL/6 IFN-γ^−/− mice with normal flora were purchased from The Jackson Laboratory and were acclimated for 3 days prior to infection by oral gavage with 10^6 C. parvum Iowa isolate oocysts (Sterling Parasitology Laboratory, University of Arizona) suspended in sterile distilled water. At various times postinfection, mice were treated with the compound vehicle alone, clofazimine (used as a positive control), or MMV665917. As described previously, fecal parasite shedding was quantified at various times postinfection by isolating oocysts using a sucrose gradient centrifugation method ([39]), followed by staining for immunofluorescence microscopy using a fluorescein isothiocyanate-conjugated mouse anti-Cryptosporidium antibody (0.25 μg per sample) and analysis with a Guava easyCyte flow cytometer and CytoSoft data acquisition and analysis software (version 5.3; Guava Technologies, Inc.). Oocyst counts per milliliter of sample were exported to Excel (Microsoft Corp.) and were normalized to counts per milligram of feces. Final data analysis and graphing were carried out using GraphPad Prism software (version 6.01).

C. parvum Iowa isolate [2] = assay: NOD SCID gamma (NSG) mouse model of chronic cryptosporidiosis, fecal qPCR; type: in vivo, NOD SCID gamma mice; conditions: for short-term efficacy on oocyst shedding in NSG mice: Fig. 2B, dose not given
Protocol: All NOD SCID gamma mouse studies were performed in compliance with animal care guidelines and were approved by the University of Vermont Institutional Animal Care and Use Committee. NOD SCID gamma mice with normal flora (NOD.Cg-Prkdc^scid Il2rg^tm1Wjl/SzJ) ([38]) were purchased from The Jackson Laboratory (Bar Harbor, ME, USA) and were housed for at least a week for acclimatization. At the age of 4 to 5 weeks, mice were infected with 10^5 C. parvum Iowa isolate oocysts. Fecal oocyst shedding is detected 6 days after infection using a quantitative PCR (qPCR assay), so treatment was started on day 7 after infection. Mice (4 per experimental group) were treated either orally (p.o.) with MMV665917 at 30 or 60 mg/kg BID, intraperitoneally (i.p.) with MMV665917 at 60 mg/kg BID, or p.o. with 1,000 mg/kg paromomycin BID. MMV665917 was suspended in DMSO, sonicated three times, for 30 s each time, to obtain a fine suspension, aliquoted, and stored at −80°C for <10 days. On the day of treatment, aliquots of MMV665917 diluted in DMSO were thawed, mixed well using a vortexer, diluted with 1% HPMC, sonicated as before (three times for 30 s each time), mixed well, and given to mice either p.o. or by i.p. injection. A final concentration of 5% DMSO was used in 100 μl of 1% HPMC per dose. For the additional Malaria Box compounds and compound variants tested, the doses were prepared in the same way, and the specific dosages tested are given in Table S3 in the supplemental material. Mice were treated for either 4 or 7 days, allowed to recover for a week, and then sacrificed. Oocyst shedding in feces was monitored throughout by qPCR, including time points while on treatment and while monitoring for relapsed infection following completion of treatment in Fig. 2A.

| Structure (SMILES) | parasiticidal or parasitistatic for C. parvum (C. parvum) | parasite persistence (C. parvum) | efficacy in IFN-γ KO mouse model of acute infection (C. parvum Iowa isolate [1]) | short-term efficacy on oocyst shedding in NSG mice (C. parvum Iowa isolate [2]) | percentage of host cells infected, extended treatment (C. parvum; day 13 of treatment, 12 × EC90, medium and drug replaced every 3 days) | relapse after cessation of treatment (C. parvum Iowa isolate [2]; paromomycin 1,000 mg/kg p.o. BID, 7 days) |
| --- | --- | --- | --- | --- | --- | --- |
| CC(C)/N=c1\cc2n(-c3ccc(Cl)cc3)c3ccccc3nc-2cc1Nc1ccc(Cl)cc1 [clofazimine] | parasitistatic | parasites persist | confirmed | completely lacked efficacy | – | – |
| NC[C@@H]1O[C@H](O[C@H]2[C@@H](O)[C@H](O[C@@H]3[C@@H](O)[C@H](N)C[C@H](N)[C@H]3O[C@H]3O[C@H](CO)[C@@H](O)[C@H](O)[C@H]3N)O[C@@H]2CO)[C@H](N)[C@@H](O)[C@@H]1O [paromomycin] | parasitistatic | parasites persist | good efficacy | ineffective | closely mirrored the pattern for the vehicle control | relapsed promptly |
